# Results: patent US20110318768A1, “METHOD FOR DETERMINING SENSITIVITY OF TUMOR CELLS TO TYROSINE KINASE INHIBITOR AND COMPUTER PROGRAM PRODUCT” (SYSMEX CORPORATION, priority 2010, published 2011)
# Assays:
# Experiment in all cases: Tyrosine kinase activity inhibition rate in cell membrane fraction (Poly-Glu4-Tyr substrate)
# Format in all cases: biochemical
# [1] = system: tyrosine kinase in cell membrane fraction of HCC1954; details: 25 μM kinase inhibitor, 25 μM ATP
# Experimental: (§1) Breast cancer cell lines shown in Table 3 were cultured in a 150 mm dish so as to be about 80% confluent, the cells were recovered using PBS and a scraper, and a cell pellet was obtained by centrifugal operation (900×g, for 5 minutes, at 4° C.). The pellet was frozen with liquid nitrogen and stored at −80° C. until preparation of the measurement sample.
# (§2) 500 μl of NP40 (−) solubilized buffer (20 mM HEPES (pH 7.4)), (w/v) % glycerol, 0.2% protease inhibitor cocktail (#P8340: Sigma-Aldrich (product composition: 104 mM AEBSF, 80 μM aprotinin, 4 mM bestatin, 1.4 mM E-64, 2 mM leupeptin, 1.5 mM Pepstatin A), 50 mM NaF and 200 μM Na3VO4) was added to the cell pellet, followed by stirring for 2 seconds three times using a vortex mixer. After being allowed to stand for 10 minutes, the soluble fraction was removed by centrifugal operation (at 20000×g, for 30 minutes, at 4° C.). The obtained pellet was resuspended in 500 μl of NP40 (−) solubilized buffer, the soluble fraction was again removed by centrifugal operation (at 20000×g, for 20 minutes, at 4° C.), and the pellet was washed. The pellet was resuspended by adding 500 μl of NP40 (+) solubilized buffer (a buffer prepared by adding NP-40 to the NP40 (−) solubilized buffer at a final concentration of 1%) to the pellet, pipetting fifty times, and vortexing for 2 seconds three times. After being allowed to stand for 10 minutes, a cell membrane fraction containing a membrane protein was obtained by centrifugal operation (at 20000×g, for 40 minutes, at 4° C.). The protein concentration of the fraction was measured by DC protein assay (#500-0116 JA: Bio-Rad) and the fraction was used as a sample for kinase activity measurement. The sample was frozen with liquid nitrogen and stored at −80° C. until used for the following kinase activity measurement.
# (§3) NeutrAvidin Coated Plates (HBC) (96 white plate; #15509: Pierce) were washed three times with 300 μl of TBS-T (20 mM Tris-HCl (pH 7.4)), 150 mM NaCl, 0.1% Tween), and then 100 μl of Poly-Glu4-Tyr biotin conjugate (#12440: Upstate) which had been diluted to 1 μg/ml with TBS (20 mM Tris-HCl (pH 7.4), 150 mM NaCl) was added to the wells. After shaking at 37° C. and 400 rpm for 90 minutes, the wells were washed with 300 μl of TBS-T three times and a measuring plate was obtained.
# (§4) The measurement sample was diluted with a kinase buffer (20 mM HEPES (pH 7.4), 25 mM MgCl2, 1.25 mM MnCl2, 250 μM Na3VO4, 12.5 (w/v) % glycerol) so as to adjust the protein concentration to 6.25 μg/ml. The diluted measurement sample was transferred to wells of a 96 well V bottom plate. A DMSO solution (inhibitor concentration: 5 mM) containing one type of tyrosine kinase inhibitors (Inhibitors 1 to 10 shown in Table 6) was added to the wells at a ratio of 1:160 based on the diluted measurement sample solution, followed by mixing thereof. As the control, DMSO was added to the diluted measurement sample at the same ratio as the solution of the inhibitor. The used tyrosine kinase inhibitors are represented as Inhibitors 1 to 10 in Table 6.
# (§5) After addition of the inhibitors, a mixed solution of the measurement sample and the inhibitor was allowed to stand at room temperature for 10 minutes. 40 μl of the mixed solution was transferred to wells of the measuring plate and 10 μl of an ATP solution (20 mM HEPES (pH 7.4), […]) as the phosphate group donor was added to the wells.
# (§6) The composition of the solution in the wells is as follows: protein concentration: 5 μg/ml, 20 mM HEPES (pH 7.4), 20 mM MgCl2, 1 mM MnCl2, 200 μM Na3VO4, 10 (w/v) % glycerol, 25 μM ATP, 25 μM kinase inhibitor.
# (§7) After shaking the measuring plate at 37° C. and 400 rpm for 60 minutes, the solution was removed from the measuring plate, and the wells were washed with 300 μl of TBS-T three times. 100 μl of Starting Block T20 (TBS) (#37543: Pierce) as a blocking solution was added to the wells, followed by blocking at 37° C. and 400 rpm for 10 minutes. The blocking solution was removed from the measuring plate. […]
# [2] = system: tyrosine kinase in cell membrane fraction of MCF7; details: 25 μM kinase inhibitor, 25 μM ATP
# Experimental: as §1, §2, §3, §4, §5, §6, §7
# [3] = system: tyrosine kinase in cell membrane fraction of UACC893; details: UACC893; 25 μM kinase inhibitor, 25 μM ATP
# Experimental: as §1, §2, §3, §4, §5, §6, §7
# [4] = system: tyrosine kinase in cell membrane fraction of T47D; details: 25 μM kinase inhibitor, 25 μM ATP
# Experimental: as §1, §2, §3, §4, §5, §6, §7
# [5] = system: tyrosine kinase in cell membrane fraction of HCC1428; details: 25 μM kinase inhibitor, 25 μM ATP
# Experimental: as §1, §2, §3, §4, §5, §6, §7
# [6] = system: tyrosine kinase in cell membrane fraction of BT-20; details: 25 μM kinase inhibitor, 25 μM ATP
# Experimental: as §1, §2, §3, §4, §5, §6, §7
# [7] = system: tyrosine kinase in cell membrane fraction of HCC1569; details: 25 μM kinase inhibitor, 25 μM ATP
# Experimental: as §1, §2, §3, §4, §5, §6, §7
# [8] = system: tyrosine kinase in cell membrane fraction of ZR-75-30; details: 25 μM kinase inhibitor, 25 μM ATP
# Experimental: as §1, §2, §3, §4, §5, §6, §7
# [9] = system: tyrosine kinase in cell membrane fraction of MDA-MB-415; details: 25 μM kinase inhibitor, 25 μM ATP
# Experimental: as §1, §2, §3, §4, §5, §6, §7
# [10] = system: tyrosine kinase in cell membrane fraction of AU565; details: 25 μM kinase inhibitor, 25 μM ATP
# Experimental: as §1, §2, §3, §4, §5, §6, §7
# [11] = system: tyrosine kinase in cell membrane fraction of MDA-MB-435S; details: 25 μM kinase inhibitor, 25 μM ATP
# Experimental: as §1, §2, §3, §4, §5, §6, §7
# [12] = system: tyrosine kinase in cell membrane fraction of MDA-MB-468; details: 25 μM kinase inhibitor, 25 μM ATP
# Experimental: as §1, §2, §3, §4, §5, §6, §7
# [13] = system: tyrosine kinase in cell membrane fraction of MDA-MB-157; details: 25 μM kinase inhibitor, 25 μM ATP
# Experimental: as §1, §2, §3, §4, §5, §6, §7
# [14] = system: tyrosine kinase in cell membrane fraction of HCC1806; details: 25 μM kinase inhibitor, 25 μM ATP
# Experimental: as §1, §2, §3, §4, §5, §6, §7
# [15] = system: tyrosine kinase in cell membrane fraction of BT-549; details: 25 μM kinase inhibitor, 25 μM ATP
# Experimental: as §1, §2, §3, §4, §5, §6, §7
# [16] = system: tyrosine kinase in cell membrane fraction of HCC1937; details: 25 μM kinase inhibitor, 25 μM ATP
# Experimental: as §1, §2, §3, §4, §5, §6, §7
Compound,Inhibition rate [1],Inhibition rate [2],Inhibition rate [3],Inhibition rate [4],Inhibition rate [5],Inhibition rate [6],Inhibition rate [7],Inhibition rate [8],Inhibition rate [9],Inhibition rate [10],Inhibition rate [11],Inhibition rate [12],Inhibition rate [13],Inhibition rate [14],Inhibition rate [15],Inhibition rate [16]
COc1cc2ncnc(Nc3cccc(Cl)c3)c2cc1OC [Inhibitor 1],39.4%,48.0%,21.2%,29.1%,19.3%,47.2%,44.7%,20.1%,41.3%,29.3%,33.4%,77.4%,45.0%,57.9%,52.9%,46.0%
CN1CCC(Nc2ncc3ncnc(Nc4ccc(F)c(Cl)c4)c3n2)CC1 [Inhibitor 2],19.7%,19.9%,4.1%,7.7%,6.8%,18.9%,25.0%,4.4%,25.0%,7.7%,3.8%,52.1%,14.3%,29.6%,21.7%,28.1%
"COc1cc2ncnc(Nc3ccc(OCc4ccccc4)cc3)c2cc1OC [Inhibitor 3, 4-(4-benzyloxyanilino)-6,7-dimethoxyquinazoline]",31.8%,11.3%,22.9%,30.2%,29.8%,42.2%,42.3%,37.2%,50.5%,25.7%,37.2%,76.9%,38.0%,56.4%,59.8%,24.1%
"CN(C)c1cc2c(Nc3ccc4c(cnn4Cc4ccccc4)c3)ncnc2cn1 [Inhibitor 4, N4-(1-benzyl-1H-indazol-5-yl)-N6,N6-dimethyl-pyrido-[3,4-d]-pyrimidine-4,6-diamine]",23.2%,12.1%,−3.1%,27.0%,7.9%,32.4%,37.9%,20.9%,19.6%,−3.8%,22.6%,71.6%,29.2%,33.7%,48.8%,17.9%
"CS(=O)(=O)CCNCc1nc(-c2ccc3ncnc(Nc4ccc(OCc5cccc(F)c5)c(Cl)c4)c3c2)cs1.Cl.Cl [Inhibitor 5, N-[3-chloro-4-[(3-fluorophenyl)methoxy]phenyl]-6-[2-[[[2-(methylsulfonyl)ethyl]amino]methyl]-4-thiazolyl]-4-quinazolineamine dihydrochloride]",59.5%,75.4%,48.4%,50.9%,56.1%,56.3%,60.7%,64.4%,48.1%,40.9%,57.8%,75.4%,56.1%,68.4%,68.8%,42.3%
COc1cc2c(cc1OC)-c1[nH]nc(Nc3cccc(F)c3)c1C2 [Inhibitor 6],41.5%,44.4%,28.0%,37.5%,30.0%,28.1%,57.8%,27.0%,50.9%,18.4%,40.6%,1.4%,49.0%,38.8%,50.1%,41.8%
CCCNC(=O)Nc1ccc(Oc2ncnc3cc(OC)c(OC)cc23)cc1Cl [Inhibitor 7],17.6%,59.1%,23.9%,22.0%,12.9%,2.3%,16.6%,18.5%,25.1%,7.1%,10.5%,18.5%,11.2%,27.7%,24.0%,17.3%
Cc1cc(F)c(Nc2ncnc3cc(OCc4ccccc4)ccc23)cc1O.Cl [Inhibitor 8],4.1%,45.7%,3.3%,38.1%,2.2%,18.5%,15.5%,10.1%,14.0%,11.5%,9.8%,7.1%,8.3%,6.4%,5.1%,11.1%
